The source of these data is PMC12598851, “Exploiting Avidity Effects for the Discovery of Low Affinity Protein-Binding Fragments” (Journal of Medicinal Chemistry, 2025).

For one test, the target named is T1, Streptavidin (SA) (Streptomyces avidinii, UniProt P22629).
T1 construct: purchased
Kind of test: SPR, soluble compound binding to immobilized streptavidin. The following applies: soluble mini-PEG attached compound, immobilized SA; read-out: KD (SPR). The protocol: The SPR binding affinity testing was conducted using the BIAcore 1K system (Cytiva) with BIAcore Insight Control Software. Streptavidin (50 μg/mL in 10 mM pH 5.0 NaOAc) was immobilized on a CM5 sensor chip (Cytiva) via amide coupling, using HBS-EP+ (10 mM HEPES, 150 mM NaCl, 3 mM EDTA, and 0.05% v/v Surfactant P20) as the immobilization buffer. Approximately 1000 RU of immobilization was achieved. Testing compounds were evaluated using the multiple-cycle kinetic/affinity method in PBS-P+ running buffer (20 mM phosphate buffer, 2.7 mM KCl, 137 mM NaCl, and 0.05% Surfactant P20), with a 200 s association time, 200 s dissociation time, and a flow rate of 45 μL/min. Binding affinities for the testing compounds were determined by fitting the sensor grams to both the 1:1 binding kinetics and steady-state affinity models provided in the BIAcore Insight Evaluation Software.
On the technique in general: In SPR one partner is held on a chip, and binding of the other changes the refractive index at the surface.

Test [1] concerns monomeric streptavidin (mSA-647). As to the kind of experiment: Bead pull-down with monomeric streptavidin. The note with it: mSA-647 500 nM, 1 h, PBST, room temperature. In kind it is binding. The protocol: To investigate this, compound 2-displaying, compound 3-displaying, or blank (acetylated) beads were incubated with tetrameric SA-647 or iFluor647-conjugated monomeric streptavidin (mSA-647). Biotin-displaying beads (Figure S3) were also included in this experiment as a high-affinity comparator. […] No binding of either protein to compound 3-displaying beads was observed.
3 Stable binding of tetrameric SA to beads displaying compound 2 is highly dependent on avidity. […] Each compound was represented by 1 million 10 μm TentaGel beads, with 250,000 beads used per technical replicate. (b) Effect of ligand functionalization density on compound binding. Beads were functionalized with compound 2, compound 3, or biotin at varying surface densities (100% to 5%) and incubated with SA-647 (500 nM) for 1 h in PBST at room temperature as previously, before recording the fluorescence intensity.
(§1) General notes: • At each step, contents were mixed by pipetting up and down 3–5 times. • All steps following the addition of SA-647 were conducted in the dark. • SA-647 and mSA-647 were purchased from commercial sources; (SA-647: ThermoFisher cat#S3235, mSA-647: Millipore SAE178).

For the next test, the target named is T2, SA-647 (Streptomyces avidinii, UniProt P22629).
T2 construct: purchased ThermoFisher S3235
Kind of test: Dose-dependent binding of SA-647 to bead-displayed ligands by FACS (MFI). The note with it: SA-647 0.1 to 1000 nM. As for the experimental part:
We next asked if the bead binding assay could distinguish complexes with different affinities for SA. 10 μm TentaGel beads displaying compound 2, compound 3, the oxazole analogue of compound 2 (Figure S4), or the SA-binding macrocycle 1 shown in Figure a were exposed to different concentrations of SA-647 ranging from 0.1 to 1000 nM. After washing, the intensity of fluorescence retained on the beads was measured using a flow cytometer, and the results were plotted as the mean fluorescence intensity (MFI) on the beads vs the protein concentration. […] Macrocycle 1, which binds SA with a K D of about 600 nM in solution (more than 1000 times more tightly than compound 2), binds SA-647 on resin at far lower concentrations than does compound 2.
(A flow cytometer gives signals particle by particle.)

Test [2] deals with T3, tetrameric streptavidin (SA-647) (Streptomyces avidinii, UniProt P22629).
T3 construct: purchased ThermoFisher S3235
As to the kind of experiment: Bead pull-down: SA-647 retained by compound-displaying TentaGel beads, plate reader. The format is binding.
Source text: Compounds 2 and 3 were then constructed on 10 μm TentaGel beads via straightforward solid-phase synthesis, along with acetylated beads, which as a “blank” (Figure c). TentaGel beads consist of an amino-polystyrene core onto which is grafted a thick layer of amine-terminated PEG chains. An additional mini-PEG spacer was incorporated prior to coupling the compounds to further improve spatial accessibility and aqueous display of the compounds (see Experimental Section for detailed synthesis). The beads were incubated with AlexaFluor 647-conjugated SA (SA-647) in phosphate-buffered saline supplemented with 0.05% Tween 20 (PBST) for 1 h at room temperature in the dark. Following incubation, the beads were washed thoroughly (see Experimental Section for a detailed protocol), then resuspended in PBST. The amount of fluorescent SA retained by the resin was analyzed using a Tecan multiwell plate reader equipped with appropriate excitation and emission filters (excitation at 650 nm, emission at 665 nm).
as §1
A 96-well Multiscreen hydrophilic assay plate (MilliporeSigma, MSBVN12) was activated by treating each well with 150 μL of 70% (v/v) ethanol in water. The solvent was removed under vacuum, and the wells were washed with PBST (3 × 150 μL). Fresh PBST (150 μL) was then added to each well.
The plate was drained and washed again with PBST (3 × 150 μL), followed by the addition of 150 μL PBST per well. Plates were shaken overnight at ambient temperature on an orbital plate shaker.
The next day, wells were drained and incubated with 150 μL of a 1:1 (v/v) solution of PBST:PBS blocking buffer (Thermo Scientific, 37538) for 1 h at room temperature. After removal of the blocking buffer, 100 μL PBST was added to each well and mixed thoroughly. A 20 μL aliquot from each well was transferred to a black 384-well flat-bottom plate (Corning, 3820) for background (blank) measurements.
The remaining PBST was removed, and the beads were incubated with SA-647 (500 nM in 1:1 PBST/blocking buffer, 150 μL per well) for 1 h at room temperature. After incubation, wells were washed with PBST while shaking (3 × 20 min). A final 150 μL PBST wash was performed and drained. Fresh PBST (80 μL) was added to each well, and the contents were transferred to labeled PCR tubes. Samples were briefly vortexed and mixed by pipetting.
Each sample was transferred to a black 384-well plate in triplicate (3 × 20 μL per well). The plate was sealed with a foil sticker and centrifuged at 250g for 1 min. Fluorescence intensity was measured using a TECAN plate reader. Background fluorescence (from blank wells) was subtracted prior to further data analysis.

Test [3] deals with T3, tetrameric streptavidin (SA-647). The description is as above. In kind it is binding. The note with it: SA-647 50 nM, about 14,000-fold below the intrinsic KD.
The target of test [4] is T4, biotin-binding surface of SA (Streptomyces avidinii, UniProt P22629).
T4 construct: purchased ThermoFisher S3235
Kind of test: Competition assay with biotin on beads. The following applies: SA-647 500 nM pretreated with biotin 10 μM, 30 min. The protocol:
To determine if ligand 2 interacts with the biotin-binding surface of SA, we preincubated SA-647 with excess biotin and repeated the binding assay.
This assay was conducted following the exact same procedure described above using two samples: SA-647 (500 nM) alone, and SA-647 (500 nM) that had been pretreated with biotin (10 μM) for 30 min at room temperature. Each sample was added to separate wells of a microtiter plate.

Structures are written as SMILES. Where “and” joins values, the source holds several entries; their conditions need not be identical. Equal values may be shown once. Entries after “also recorded” stand apart in the source; their conditions may differ.

A word on the Kd: it is the equilibrium constant for the complex coming apart. Take `CC(=O)N(Cc1cccnc1)Cc1nc(C(=O)N(C)CC(=O)NCCOCCOCC(=O)NCC(N)=O)cs1` [Compound 2]: the dissociation constant Kd on Streptavidin (SA) came out at 706 µM. Moreover, the “binding of mSA-647 to bead-displayed ligand” value in test [1] is listed as “did not retain detectable levels; also recorded: not observed”. Moreover, the “dose-dependent binding of SA-647 (MFI by flow cytometer)” value on SA-647 is reported as “dose-dependent binding”. In addition, the “Fluorescence intensity, Average” value in test [2] (SA-647 500 nM, 12 replicates, after background subtraction, Z' calculation) was 14647. The “binding of SA-647 to bead-displayed compound (fluorescence)” value in test [2] (SA-647 500 nM, 1 h, PBST, room temperature, after washing) is “readily detectable; also recorded: strong binding”. In test [2] (SA-647 500 nM, replicates 1-12, after background subtraction, Z' calculation), the “Fluorescence intensity, individual replicate” value was 15421 and 12975 and 13104 and 12492 and 14298 and 14769 and 15364 and 16337 and 17794 and 14546 and 14869 and 13797. Also, the “fluorescence after 24 h in buffer lacking protein compared with directly after washing” value in test [2] (beads washed, resuspended in PBST lacking protein for 24 h) is reported as “almost identical”. Also, the “retained SA-647 at 30% ligand density” value in test [2] (compound linked to only 30% of the sites on the beads, SA-647 500 nM) was “almost undetectable above background”. Also, the “dependence of SA-647 retention on ligand density” value in test [2] (site functionalization 100% to 5%, SA-647 500 nM) was “strongly density-dependent”. Besides, the “binding of SA-647 to bead-displayed compound at low protein concentration” value in test [3] is recorded as “above background binding was readily detectable”. For the same molecule, the “retention of SA-647 preincubated with excess biotin” value in test [4] was “ablated retention”.
